Test results published in the NIST ThermoML archive (doi:10.1021/je0340755).
Numbers after ± are expanded uncertainties.

Experiment: xn = mol fraction of the nth substance listed
Details: 101.3 kPa, Liquid; for viscosity: Capillary tube (Ostwald / Ubbelohde) method

CC(O)CO (centres undefined) [1,2-propanediol] + O
Details	mass density, 298.15 K [kg/m3]	mass density, 308.15 K [kg/m3]	mass density, 318.15 K [kg/m3]	speed of sound, 298.15 K [m/s]	speed of sound, 308.15 K [m/s]	speed of sound, 318.15 K [m/s]	viscosity, 298.15 K [mPa·s]	viscosity, 308.15 K [mPa·s]	viscosity, 318.15 K [mPa·s]
x2 = 0.044	1033.39 ± 0.43	1026.01 ± 0.41	1017.94 ± 0.39	1511.4 ± 6.3	1502.9 ± 6.2	1451.7 ± 6.1	41.25 ± 0.2	23.03 ± 0.12	–
x2 = 0.0987	1034.15 ± 0.43	1026.76 ± 0.41	1018.71 ± 0.39	1518.3 ± 6.3	1509.5 ± 6.3	1458.8 ± 6.1	38.41 ± 0.18	21.43 ± 0.12	–
x2 = 0.1484	1034.84 ± 0.42	1027.45 ± 0.4	1019.41 ± 0.38	1523 ± 6.3	1513.1 ± 6.3	1463.2 ± 6.1	35.74 ± 0.17	19.93 ± 0.11	–
x2 = 0.2498	1036.3 ± 0.42	1028.92 ± 0.4	1020.89 ± 0.37	1531.6 ± 6.3	1524.5 ± 6.3	1476.1 ± 6.2	30.2 ± 0.14	16.8 ± 0.098	–
x2 = 0.3494	1037.8 ± 0.41	1030.43 ± 0.39	1022.37 ± 0.37	1551.3 ± 6.4	1541.8 ± 6.3	1495.1 ± 6.2	24.83 ± 0.12	13.77 ± 0.088	–
x2 = 0.4494	1039.24 ± 0.41	1031.91 ± 0.39	1023.79 ± 0.36	1581.6 ± 6.5	1565.2 ± 6.4	1520.3 ± 6.3	19.71 ± 0.11	10.9 ± 0.08	–
x2 = 0.5029	1039.87 ± 0.4	1032.59 ± 0.38	1024.44 ± 0.36	1602.9 ± 6.5	1581.4 ± 6.5	1537.6 ± 6.3	17.14 ± 0.096	9.465 ± 0.077	5.202 ± 0.068
x2 = 0.5499	1040.27 ± 0.4	1033.05 ± 0.38	1024.88 ± 0.36	1622.2 ± 6.6	1598.4 ± 6.5	–	15 ± 0.09	8.274 ± 0.075	4.639 ± 0.068
x2 = 0.5597	1040.33 ± 0.4	1033.12 ± 0.38	–	1626.9 ± 6.6	1602.2 ± 6.5	–	14.56 ± 0.089	8.034 ± 0.074	4.528 ± 0.068
x2 = 0.6501	1040.2 ± 0.39	1033.19 ± 0.37	–	1660.5 ± 6.7	1640 ± 6.6	–	10.84 ± 0.079	5.979 ± 0.07	3.576 ± 0.066
x2 = 0.7499	1037.73 ± 0.38	1031.14 ± 0.36	–	1687.6 ± 6.8	1672.3 ± 6.7	–	7.287 ± 0.072	4.049 ± 0.066	2.675 ± 0.065
x2 = 0.85	1030.31 ± 0.35	1024.53 ± 0.34	–	1676.8 ± 6.7	1660.9 ± 6.7	–	4.325 ± 0.067	2.473 ± 0.064	1.864 ± 0.064
x2 = 0.9003	1023.26 ± 0.33	1018.14 ± 0.31	–	1642.7 ± 6.6	1628.3 ± 6.6	–	3.049 ± 0.065	1.81 ± 0.064	1.462 ± 0.064
x2 = 0.9115	1021.26 ± 0.32	1016.3 ± 0.31	–	1632.5 ± 6.6	1618.4 ± 6.6	–	2.782 ± 0.065	1.673 ± 0.064	1.37 ± 0.063
x2 = 0.9154	1020.51 ± 0.32	1015.63 ± 0.31	–	1627.5 ± 6.6	1614.8 ± 6.6	–	2.692 ± 0.065	1.626 ± 0.064	1.338 ± 0.063
x2 = 0.927	1018.16 ± 0.31	1013.47 ± 0.3	–	1614.3 ± 6.6	1603.4 ± 6.5	–	2.425 ± 0.064	1.491 ± 0.064	1.242 ± 0.063
x2 = 0.9367	1016.02 ± 0.31	1011.51 ± 0.29	–	1602.1 ± 6.5	1593.2 ± 6.5	–	2.208 ± 0.064	1.379 ± 0.063	1.16 ± 0.063
x2 = 0.9504	1012.69 ± 0.3	1008.45 ± 0.28	–	1582.9 ± 6.5	1578 ± 6.4	–	1.907 ± 0.064	1.227 ± 0.063	1.043 ± 0.063
x2 = 0.9551	1011.46 ± 0.29	1007.32 ± 0.28	–	1577.5 ± 6.4	1572.6 ± 6.4	–	1.806 ± 0.064	1.177 ± 0.063	1.003 ± 0.063
x2 = 0.96	1010.13 ± 0.29	1006.1 ± 0.27	–	1570.2 ± 6.4	1566.9 ± 6.4	–	1.701 ± 0.064	1.124 ± 0.063	0.96 ± 0.063
x2 = 0.9696	1007.36 ± 0.28	1003.55 ± 0.27	–	1554.1 ± 6.4	1555.5 ± 6.4	–	1.501 ± 0.064	1.023 ± 0.063	0.876 ± 0.063
x2 = 0.9797	1004.21 ± 0.27	1000.65 ± 0.26	–	1535.9 ± 6.3	1543.3 ± 6.3	–	1.294 ± 0.063	0.919 ± 0.063	0.784 ± 0.063
x2 = 0.9902	1000.65 ± 0.26	997.36 ± 0.26	–	1518 ± 6.3	1530.7 ± 6.3	–	1.083 ± 0.063	0.815 ± 0.063	0.688 ± 0.063
x2 = 0.9923	999.9 ± 0.26	996.67 ± 0.27	–	1513.6 ± 6.2	1528.2 ± 6.3	–	1.041 ± 0.063	0.794 ± 0.063	0.668 ± 0.063
x2 = 0.9948	998.99 ± 0.26	995.83 ± 0.27	–	1508.4 ± 6.2	1525.2 ± 6.3	–	0.992 ± 0.063	0.769 ± 0.063	0.645 ± 0.063
